# Laboratory results published in US9302999B2, “Substituted triazoles as herbicides” (E. I. DU PONT DE NEMOURS AND COMPANY, priority 2012, dated 2016).
# Read-outs that look alike come from different tables or passages of the source.
# Experiments:
# Assay type in all cases: in vivo
# [1] = tested on: pigweed (Amaranthus retroflexus); assay: Test D pre-/postemergence: pigweed
# In short: (§1)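 Visual ratings from 0 (no effect) to 100 (complete control) were made 14–21 days after treatment, relative to controls. Applications were preemergence to seeds in silt loam, or postemergence to 2–18 cm (1–4 leaf) plants in peat-based medium. Compounds were formulated in a surfactant-containing non-phytotoxic solvent.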
# [2] = tested on: canarygrass (Phalaris minor); assay: Test D pre-/postemergence: canarygrass
# In short: as §1
# [3] = tested on: bluegrass (annual bluegrass, Poa annua); assay: Test D pre-/postemergence: bluegrass
# In short: as §1
# [4] = tested on: deadnettle (henbit deadnettle, Lamium amplexicaule); assay: Test C postemergence: deadnettle
# In short: (§2)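 Visual ratings of 0 (no effect) to 100 (complete control) were made against controls 13-15 days after a postemergence spray, with plants kept in a greenhouse. Plants were 2-18 cm tall (1- to 4-leaf stage) in Redi-Earth peat/vermiculite medium at treatment.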
# [5] = tested on: chickweed (common chickweed, Stellaria media); assay: Test D pre-/postemergence: chickweed
# In short: as §1
# [6] = tested on: foxtail, green (green foxtail, Setaria viridis); assay: Test D pre-/postemergence: foxtail, green
# In short: as §1
# [7] = tested on: ryegrass, Italian (Italian ryegrass, Lolium multiflorum); assay: Test D pre-/postemergence: ryegrass, Italian
# In short: as §1
# [8] = tested on: canarygrass (Phalaris minor); assay: Test C postemergence: canarygrass
# In short: as §2
# [9] = tested on: sedge, umbrella (small-flower umbrella sedge, Cyperus difformis); assay: Test C flooded paddy test: sedge, umbrella; details: Cyperus difformis, scale 0 to 100 (0 no effect, 100 complete control), read-out: Plant response rating, Sedge, Umbrella; for pest or weed control at 62 g/ha: 62 g ai/ha; for pest or weed control at 125 g/ha: 125 g ai/ha; for pest or weed control at 250 g/ha: 250 g ai/ha; for pest or weed control at 31 g/ha: 31 g ai/ha
# In short: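 2-leaf stage plants; pots flooded 3 cm above soil; compound applied into paddy water, depth maintained. Greenhouse 13–15 d. Visual rating vs controls, 0–100 (0 = no effect, 100 = complete control); dash = no result.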
# [10] = Postemergence, 31 g ai/ha, scale 0 to 100 (0 no effect, 100 complete control)
# [11] = Postemergence, 62 g ai/ha, scale 0 to 100 (0 no effect, 100 complete control)
# [12] = Postemergence, 125 g ai/ha, scale 0 to 100, 0 no effect, 100 complete control
# [13] = Postemergence, 250 g ai/ha, scale 0 to 100 (0 no effect, 100 complete control)
# [14] = Postemergence, 16 g ai/ha, scale 0 to 100
# [15] = Preemergence, 16 g ai/ha, scale 0 to 100 (0 no effect, 100 complete control)
# [16] = Preemergence, 31 g ai/ha, scale 0 to 100 (0 no effect, 100 complete control)
# [17] = Preemergence, 62 g ai/ha, scale 0 to 100
# [18] = Preemergence, 125 g ai/ha, scale 0 to 100
# [19] = Preemergence, 250 g ai/ha, scale 0 to 100
# [20] = 31 g ai/ha, scale 0 to 100 (0 no effect, 100 complete control)
# [21] = 62 g ai/ha, scale 0 to 100 (0 no effect, 100 complete control)
# [22] = 125 g ai/ha, scale 0 to 100, 0 no effect, 100 complete control
# [23] = Flood (flooded paddy test), visual rating after 13 to 15 days
smiles,measurement,setting,value
"Cc1nn(-c2ccc(F)cc2)nc1Cc1ccnc(C(F)(F)F)c1 [Compound 16, 4-[[2-(4-fluorophenyl)-5-methyl-2H-1,2,3-triazol-4-yl]methyl]-2-(trifluoromethyl)pyridine]",Plant response rating: Pigweed,[1]; [10],70
same,Plant response rating: Pigweed,[1]; [11],80
same,Plant response rating: Pigweed,[1]; [12],90
same,Plant response rating: Pigweed,[1]; [13],100
same,"Plant response rating, Pigweed",[1]; [14],50
same,"Plant response rating, Pigweed",[1]; [15],25
same,"Plant response rating, Pigweed",[1]; [16],80
same,"Plant response rating, Pigweed",[1]; [17],80
same,"Plant response rating, Pigweed",[1]; [18],90
same,"Plant response rating, Pigweed",[1]; [19],100
same,Plant response rating: Canarygrass,[2]; [10],30
same,Plant response rating: Canarygrass,[2]; [11],35
same,Plant response rating: Canarygrass,[2]; [12],40
same,Plant response rating: Canarygrass,[2]; [13],80
same,"Plant response rating, Canarygrass",[2]; [14],20
same,"Plant response rating, Canarygrass",[2]; [15],20
same,"Plant response rating, Canarygrass",[2]; [16],40
same,"Plant response rating, Canarygrass",[2]; [17],50
same,"Plant response rating, Canarygrass",[2]; [18],90
same,"Plant response rating, Canarygrass",[2]; [19],100
same,Plant response rating: Bluegrass,[3]; [10],20
same,Plant response rating: Bluegrass,[3]; [11],40
same,Plant response rating: Bluegrass,[3]; [12],60
same,Plant response rating: Bluegrass,[3]; [13],70
same,"Plant response rating, Bluegrass",[3]; [14],10
same,"Plant response rating, Bluegrass",[3]; [15],0
same,"Plant response rating, Bluegrass",[3]; [16],20
same,"Plant response rating, Bluegrass",[3]; [17],20
same,"Plant response rating, Bluegrass",[3]; [18],30
same,"Plant response rating, Bluegrass",[3]; [19],100
same,"Plant response rating, Deadnettle",[4]; [20],50
same,"Plant response rating, Deadnettle",[4]; [21],98
same,"Plant response rating, Deadnettle",[4]; [22],98
same,"Plant response rating, Deadnettle","[4]; 250 g ai/ha, scale 0 to 100",100
same,Plant response rating: Chickweed,[5]; [10],70
same,Plant response rating: Chickweed,[5]; [11],90
same,Plant response rating: Chickweed,[5]; [12],95
same,Plant response rating: Chickweed,[5]; [13],95
same,"Plant response rating, Chickweed",[5]; [14],40
same,"Plant response rating: Foxtail, Green",[6]; [10],30
same,"Plant response rating: Foxtail, Green",[6]; [11],80
same,"Plant response rating: Foxtail, Green",[6]; [12],90
same,"Plant response rating: Foxtail, Green",[6]; [13],95
same,"Plant response rating, Foxtail, Green",[6]; [14],30
same,"Plant response rating, Foxtail, Green",[6]; [15],25
same,"Plant response rating, Foxtail, Green",[6]; [16],100
same,"Plant response rating, Foxtail, Green",[6]; [17],100
same,"Plant response rating, Foxtail, Green",[6]; [18],100
same,"Plant response rating, Foxtail, Green",[6]; [19],100
same,"Plant response rating: Ryegrass, Italian",[7]; [10],20
same,"Plant response rating: Ryegrass, Italian",[7]; [11],25
same,"Plant response rating: Ryegrass, Italian",[7]; [12],30
same,"Plant response rating: Ryegrass, Italian",[7]; [13],35
same,"Plant response rating, Ryegrass, Italian",[7]; [14],10
same,"Plant response rating, Ryegrass, Italian",[7]; [15],0
same,"Plant response rating, Ryegrass, Italian",[7]; [16],0
same,"Plant response rating, Ryegrass, Italian",[7]; [17],10
same,"Plant response rating, Ryegrass, Italian",[7]; [18],60
same,"Plant response rating, Ryegrass, Italian",[7]; [19],60
same,"Plant response rating, Canarygrass",[8]; [20],20
same,"Plant response rating, Canarygrass",[8]; [21],60
same,"Plant response rating, Canarygrass",[8]; [22],60
same,"Plant response rating, Canarygrass","[8]; 250 g ai/ha, scale 0 to 100",90
same,pest or weed control at 62 g/ha,[9]; [23],90%
same,pest or weed control at 125 g/ha,[9]; [23],95%
same,pest or weed control at 250 g/ha,[9]; [23],95%
same,pest or weed control at 31 g/ha,[9]; Flood,80%
"Cc1nn(-c2ccc(F)cc2)nc1Oc1ccnc(C(F)(F)F)c1 [Compound 129, 4-[[2-(4-fluorophenyl)-5-methyl-2H-1,2,3-triazol-4-yl]oxy]-2-(trifluoromethyl)pyridine]",Plant response rating: Pigweed,[1]; [10],100
same,Plant response rating: Pigweed,[1]; [11],100
same,Plant response rating: Pigweed,[1]; [12],100
same,Plant response rating: Pigweed,[1]; [13],100
same,"Plant response rating, Pigweed",[1]; [14],100
same,"Plant response rating, Pigweed",[1]; [15],30
same,"Plant response rating, Pigweed",[1]; [16],80
same,"Plant response rating, Pigweed",[1]; [17],90
same,"Plant response rating, Pigweed",[1]; [18],100
same,"Plant response rating, Pigweed",[1]; [19],100
same,Plant response rating: Canarygrass,[2]; [10],10
same,Plant response rating: Canarygrass,[2]; [11],15
same,Plant response rating: Canarygrass,[2]; [12],70
same,Plant response rating: Canarygrass,[2]; [13],80
same,"Plant response rating, Canarygrass",[2]; [14],10
same,"Plant response rating, Canarygrass",[2]; [15],0
same,"Plant response rating, Canarygrass",[2]; [16],15
same,"Plant response rating, Canarygrass",[2]; [17],100
same,"Plant response rating, Canarygrass",[2]; [18],100
same,"Plant response rating, Canarygrass",[2]; [19],100
same,Plant response rating: Bluegrass,[3]; [10],10
same,Plant response rating: Bluegrass,[3]; [11],20
same,Plant response rating: Bluegrass,[3]; [12],60
same,Plant response rating: Bluegrass,[3]; [13],70
same,"Plant response rating, Bluegrass",[3]; [14],10
same,"Plant response rating, Bluegrass",[3]; [15],0
same,"Plant response rating, Bluegrass",[3]; [16],0
same,"Plant response rating, Bluegrass",[3]; [17],85
same,"Plant response rating, Bluegrass",[3]; [18],100
same,"Plant response rating, Bluegrass",[3]; [19],100
same,"Plant response rating, Deadnettle",[4]; [20],100
same,"Plant response rating, Deadnettle",[4]; [21],100
same,"Plant response rating, Deadnettle",[4]; [22],100
same,"Plant response rating, Deadnettle","[4]; 250 g ai/ha, scale 0 to 100",100
same,Plant response rating: Chickweed,[5]; [10],90
same,Plant response rating: Chickweed,[5]; [11],100
same,Plant response rating: Chickweed,[5]; [12],100
same,Plant response rating: Chickweed,[5]; [13],100
same,"Plant response rating, Chickweed",[5]; [14],75
same,"Plant response rating, Chickweed",[5]; [15],0
same,"Plant response rating, Chickweed",[5]; [16],100
same,"Plant response rating, Chickweed",[5]; [17],100
same,"Plant response rating, Chickweed",[5]; [18],100
same,"Plant response rating, Chickweed",[5]; [19],100
same,"Plant response rating: Foxtail, Green",[6]; [10],35
same,"Plant response rating: Foxtail, Green",[6]; [11],85
same,"Plant response rating: Foxtail, Green",[6]; [12],95
same,"Plant response rating: Foxtail, Green",[6]; [13],100
same,"Plant response rating, Foxtail, Green",[6]; [14],35
same,"Plant response rating, Foxtail, Green",[6]; [15],5
same,"Plant response rating, Foxtail, Green",[6]; [16],90
same,"Plant response rating, Foxtail, Green",[6]; [17],100
same,"Plant response rating, Foxtail, Green",[6]; [18],100
same,"Plant response rating, Foxtail, Green",[6]; [19],100
same,"Plant response rating: Ryegrass, Italian",[7]; [10],5
same,"Plant response rating: Ryegrass, Italian",[7]; [11],5
same,"Plant response rating: Ryegrass, Italian",[7]; [12],10
same,"Plant response rating: Ryegrass, Italian",[7]; [13],15
same,"Plant response rating, Ryegrass, Italian",[7]; [14],5
same,"Plant response rating, Ryegrass, Italian",[7]; [15],0
same,"Plant response rating, Ryegrass, Italian",[7]; [16],5
same,"Plant response rating, Ryegrass, Italian",[7]; [17],10
same,"Plant response rating, Ryegrass, Italian",[7]; [18],70
same,"Plant response rating, Ryegrass, Italian",[7]; [19],90
same,"Plant response rating, Canarygrass",[8]; [20],30
same,"Plant response rating, Canarygrass",[8]; [21],45
same,"Plant response rating, Canarygrass",[8]; [22],50
same,"Plant response rating, Canarygrass","[8]; 250 g ai/ha, scale 0 to 100",85
same,pest or weed control at 125 g/ha,[9]; [23],85%
same,pest or weed control at 250 g/ha,[9]; [23],95%
same,pest or weed control at 31 g/ha,[9]; Flood,75%
same,pest or weed control at 62 g/ha,[9]; Flood,75%
